Earlier results, collected in US20080107723A1, “Methods of Treating Pulmonary Distress” (priority 2006, published 2008).

Assays:
[1] = administered by inhalation; CF patients
[2] = tested on: colony forming units (CFU); conditions: administered by inhalation; CF patients

| Molecule | improvement in FEV1 [1] | reduction in colony forming units (CFU) [2] |
| --- | --- | --- |
| NC[C@H]1O[C@H](O[C@H]2[C@H](O)[C@@H](O[C@H]3O[C@H](CO)[C@@H](O)[C@H](N)[C@H]3O)[C@H](N)C[C@@H]2N)[C@H](N)C[C@@H]1O [Tobramycin] | approximately 10% | about 2 log units |
| Pulmozyme: recombinant human Dnase administered by inhalation (protein, UniProt P24855 23-282, looked up) Deoxyribonuclease-1: LKIAAFNIQTFGETKMSNATLVSYIVQILSRYDIALVQEVRDSHLTAVGKLLDNLNQDAPDTYHYVVSEPLGRNSYKERYLFVYRPDQVSAVDSYYYDDGCEPCGNDTFNREPAIVRFFSRFTEVREFAIVPLHAAPGDAVAEIDALYDVYLDVQEKWGLEDVMLMGDFNAGCSYVRPSQWSSIRLWTSPTFQWLIPDSADTTATPTHCAYDRIVVAGMLLRGAVVPDSALPFNFQAAYGLSDQLAQAISDHYPVEVMLK | approximately 10% |  |
